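48-hour exposure; five concentrations; linearly interpolated endpoints. GI50: concentration for 50% inhibition of growth. The concentration for full growth arrest is given as TGI.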
Experiments:
Assay in all cases: inhibition of tumour cell growth, NCI panel, 48 h
[1] = tested on: SF-295 CNS
[2] = tested on: EKVX NSCLC
[3] = tested on: NCI-H23 lung
[4] = tested on: SF-539 CNS
[5] = tested on: KM12 colon
[6] = tested on: DMS 114 small cell lung
[7] = tested on: SN12C renal
[8] = tested on: OVCAR-5 ovarian
[9] = tested on: HCC-2998 colon
[10] = tested on: SR leukemia

COC(=O)C(C)Oc1ccc(O)cc1 (centres undefined)
TGI [1]: > 100 µM
TGI [2]: > 100 µM
TGI [3]: > 100 µM
TGI [4]: > 100 µM
TGI [5]: > 100 µM
TGI [6]: 34.7 µM
TGI [7]: > 100 µM
TGI [8]: > 100 µM
TGI [9]: > 100 µM

O=C(N/C(=C\c1ccc(F)cc1)c1nc2ccccc2[nH]1)c1ccccc1
TGI [2]: > 100 µM
TGI [3]: > 100 µM
TGI [4]: > 100 µM
TGI [5]: > 100 µM
TGI [6]: > 100 µM
TGI [7]: > 100 µM
TGI [8]: > 100 µM

C=CCO[C@H]1CC[C@@]2(C)C(CC[C@]3(C)C2CC=C2[C@@H]4[C@@H](C)C(C)CC[C@]4(C(=O)O)CCC23C)C1(C)C (some centres undefined)
TGI [1]: 27.5 µM
TGI [2]: 38.1 µM
TGI [10]: 36.2 µM
TGI [3]: 28.9 µM
TGI [4]: 34.1 µM
TGI [5]: 30.5 µM
TGI [6]: 32.1 µM
TGI [7]: 27.1 µM
TGI [9]: 32.4 µM

COC(=O)C(=O)C(C#N)c1c(Cl)cccc1Cl (centres undefined)
TGI [1]: > 100 µM
TGI [2]: > 100 µM
TGI [3]: > 100 µM
TGI [4]: > 100 µM
TGI [6]: > 100 µM
TGI [7]: > 100 µM
TGI [8]: > 100 µM

CN(C)C(=S)/N=c1\ss/c(=N\S(=O)(=O)c2ccccc2)n1C
TGI [1]: > 100 µM
TGI [2]: > 100 µM
TGI [10]: > 100 µM
TGI [3]: > 100 µM
TGI [4]: > 100 µM
TGI [5]: > 100 µM
TGI [6]: > 100 µM
TGI [7]: > 100 µM
TGI [8]: > 100 µM
TGI [9]: > 100 µM

O=C1C(=Cc2ccc(F)cc2)C(=O)c2ccccc21
TGI [1]: > 100 µM
TGI [2]: > 100 µM
TGI [3]: > 100 µM
TGI [4]: > 100 µM
TGI [5]: > 100 µM
TGI [6]: > 100 µM
TGI [8]: > 100 µM
TGI [9]: > 100 µM

CC1(C2CCC3(C)C(C2)C3Sc2ccccc2)OCCO1 (centres undefined)
TGI [1]: 46.5 µM
TGI [2]: 66.2 µM
TGI [3]: 66.3 µM
TGI [4]: 67.3 µM
TGI [5]: 79.2 µM
TGI [6]: 47.1 µM
TGI [7]: 46.8 µM
TGI [8]: 49.9 µM
TGI [9]: 39.2 µM

NC(=O)c1nc(-c2ccc(Cl)c(Cl)c2)nc2ccccc12
TGI [1]: > 100 µM
TGI [2]: > 100 µM
TGI [10]: > 100 µM
TGI [3]: > 100 µM
TGI [4]: > 95.5 µM
TGI [5]: > 100 µM
TGI [6]: > 100 µM
TGI [7]: > 100 µM
TGI [8]: > 100 µM

CCOc1ccccc1NC(=O)C1=C(C)NC(C)=C(C(=O)Nc2ccccc2OCC)C1c1cccc([N+](=O)[O-])c1
TGI [1]: > 100 µM
TGI [2]: > 100 µM
TGI [3]: > 100 µM
TGI [4]: > 100 µM
TGI [5]: > 100 µM
TGI [6]: > 100 µM
TGI [7]: > 100 µM
TGI [8]: > 100 µM
TGI [9]: > 100 µM

CCOC(=O)C(=O)Nc1nc2ccc(C)cc2s1
TGI [2]: > 100 µM
TGI [10]: > 100 µM
TGI [3]: > 100 µM
TGI [4]: > 100 µM
TGI [5]: > 100 µM
TGI [6]: > 100 µM
TGI [7]: > 100 µM
TGI [8]: > 100 µM
TGI [9]: > 100 µM

CNC(=O)c1cc(-c2ccc(F)cc2)cc(-c2ccc(S(=O)(=O)N3CCCC3)cc2)c1N
GI50 [1]: 10.6 µM
TGI [1]: > 25 µM
GI50 [2]: 10.2 µM
TGI [2]: > 25 µM
GI50 [10]: > 25 µM
TGI [10]: > 25 µM
GI50 [3]: > 25 µM
TGI [3]: > 25 µM
GI50 [4]: > 25 µM
TGI [4]: > 25 µM
GI50 [5]: 16.6 µM
TGI [5]: > 25 µM
GI50 [7]: > 23.8 µM
TGI [7]: > 25 µM
GI50 [8]: > 25 µM
TGI [8]: > 25 µM
GI50 [9]: > 25 µM
TGI [9]: > 25 µM

CCOC(=O)N(O)c1ccc(/C=C/c2ccccc2)cc1
GI50 [1]: 2.45 µM
TGI [1]: 22.1 µM
GI50 [2]: 9.05 µM
TGI [2]: 63.6 µM
GI50 [10]: 4.1 µM
TGI [10]: 28.2 µM
GI50 [3]: 5.77 µM
TGI [3]: 37.1 µM
GI50 [4]: 17.1 µM
TGI [4]: 40.1 µM
GI50 [5]: 10.6 µM
TGI [5]: 36.6 µM
GI50 [7]: 14.7 µM
TGI [7]: > 100 µM
GI50 [8]: 0.737 µM
TGI [8]: 9.71 µM
GI50 [9]: 7.03 µM
TGI [9]: 21.3 µM

Cc1nc(-n2nc(-c3ccccc3)cc2-c2ccccc2)sc1C(=O)CC(=O)C(=O)Nc1ccc(O)cc1
TGI [1]: > 100 µM
TGI [2]: > 100 µM
TGI [10]: > 100 µM
TGI [3]: > 100 µM
TGI [4]: > 100 µM
TGI [5]: > 100 µM
TGI [6]: > 100 µM
TGI [7]: > 100 µM
TGI [8]: > 100 µM
TGI [9]: > 100 µM

O=C(CCc1cc(-c2ccc(F)cc2)n[nH]1)N(Cc1ccccc1)Cc1ccccc1
TGI [1]: > 100 µM
TGI [2]: > 100 µM
TGI [10]: 81.1 µM
TGI [3]: > 100 µM
TGI [4]: > 100 µM
TGI [5]: > 100 µM
TGI [6]: > 100 µM
TGI [7]: > 100 µM
TGI [8]: > 100 µM
TGI [9]: > 100 µM

COc1cc(CCc2ccncc2)cc(OC)c1OC
TGI [1]: > 100 µM
TGI [2]: > 100 µM
TGI [3]: > 100 µM
TGI [4]: > 100 µM
TGI [5]: > 100 µM
TGI [6]: > 100 µM
TGI [7]: > 100 µM
TGI [8]: > 100 µM

CC/C(C)=C1\CCC(CN(C)C)C1=O (centres undefined)
TGI [1]: > 100 µM
TGI [2]: 44 µM
TGI [10]: 43.2 µM
TGI [3]: 42.9 µM
TGI [4]: 32.7 µM
TGI [5]: 28.4 µM
TGI [6]: 41.8 µM
TGI [7]: 38.3 µM
TGI [8]: 33.6 µM
TGI [9]: 39.9 µM

O=S(=O)(Nc1ccc(Cl)c(Cl)c1)c1ccc(-c2cnc(C3CC3)o2)cc1
GI50 [1]: 0.337 µM
TGI [1]: 11.4 µM
GI50 [2]: 1.15 µM
TGI [2]: 30.4 µM
GI50 [10]: 0.122 µM
TGI [10]: 62.6 µM
GI50 [3]: 1.33 µM
TGI [3]: 19.6 µM
GI50 [4]: 0.399 µM
TGI [4]: 3.64 µM
GI50 [5]: 0.371 µM
TGI [5]: 15.4 µM
GI50 [7]: 0.761 µM
TGI [7]: 17.3 µM
GI50 [8]: 2.32 µM
TGI [8]: 17.3 µM
GI50 [9]: 1.81 µM
TGI [9]: 10.3 µM

Cc1ccc(C)c(NC(=O)C(=O)Nn2c(=S)[nH]c3ccccc3c2=O)c1
TGI [1]: > 100 µM
TGI [2]: > 100 µM
TGI [10]: > 100 µM
TGI [3]: > 100 µM
TGI [4]: > 100 µM
TGI [5]: > 100 µM
TGI [6]: > 100 µM
TGI [7]: > 100 µM
TGI [8]: > 100 µM
TGI [9]: > 100 µM

C[C@H]1CC[C@@H]2[C@@H](C)[C@H]3[C@H](C[C@H]4[C@@H]5CC=C6C[C@@H](O)CC[C@]6(C)[C@H]5CC[C@]34C)N2C1
TGI [1]: > 100 µM
TGI [2]: > 100 µM
TGI [10]: 56.1 µM
TGI [3]: > 100 µM
TGI [4]: > 100 µM
TGI [5]: > 100 µM
TGI [7]: > 100 µM
TGI [8]: > 100 µM
TGI [9]: > 100 µM

CC1OC(=O)N2CCC=CC12 (centres undefined)
TGI [1]: > 100 µM
TGI [2]: > 100 µM
TGI [3]: > 100 µM
TGI [4]: > 100 µM
TGI [5]: > 100 µM
TGI [6]: > 100 µM
TGI [7]: > 100 µM
TGI [8]: > 100 µM

O=C1/C(=C/c2ccc(O)cc2)Oc2ccccc21
TGI [1]: > 100 µM
TGI [2]: > 100 µM
TGI [10]: > 100 µM
TGI [3]: > 100 µM
TGI [4]: > 100 µM
TGI [5]: > 100 µM
TGI [7]: > 100 µM
TGI [8]: > 100 µM
TGI [9]: > 100 µM
